In patent US20080045537A1, “Chemical Compounds” (priority 2004, published 2008):
Read-outs that look alike come from different tables or passages of the source.

Columns and labels:
T-tropic HIV = details: patients that are dual tropic or have only the T-tropic form of the virus; cited from earlier work
[1] = test system: HIV-1 IIIB (T-tropic, CXCR4 utilizing); test: HOS HIV-1 infectivity assay; type: cell-based
Method in brief: (§1)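 Blockade of infection is measured in HOS cells carrying hCD4, hCXCR4, hCCR5 and an HIV-LTR-driven luciferase, using virus grown in human peripheral blood lymphocytes. After 96 h, Steady-Glo luminescence reports infection, while CellTiter-Glo gauges cytotoxicity without virus.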

[2] = test system: HIV-1 gp160 (from the HXB2 HIV strain); test: Cell/cell fusion assay (HEK-293 expressing HIV-1 tat, rev, gp160 with HOS hCXCR4/hCCR5/hCD4/pHIV-LTR-luciferase cells); type: cell-based; details: Human immunodeficiency virus 1, HXB2, HEK293, 24 h, read-out: Fusion assay (pIC50), luciferase readout after 24 h (converted)
Method in brief: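 HEK-293 cells BacMam-transduced (MOI 10 each, 2 mM butyric acid, 24 h) to express HIV-1 tat, rev and HXB2 gp160 were mixed with HOS hCXCR4/hCCR5/hCD4 LTR-luciferase cells, 20,000 each per well, on DMSO compound spots in 2% FCS media. Fusion read as luciferase luminescence after 24 h at 37 °C.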

[3] = Compound cytotoxicity in the absence of virus addition (CellTiter-Glo); type: cell-based; details: human; non-infected HOS cultures; read-out: Cytotox (pIC50) (converted)
Method in brief: as §1

human CXCR4 = biological target: T1, human CXCR4 (Homo sapiens, UniProt P61073); test: Functional FLIPR assay (block of SDF-1 alpha induced [Ca2+]i change); type: cell-based; details: HEK-293 cells with human CXCR4 BacMam and Gqi5 BacMam; antagonism of SDF-1 alpha; read-out: Functional assay (pIC50) (converted)
T1 construct: expressed in transfected cells; host or cells: HEK-293 cells (stably expressing human macrophage scavenging receptor) transduced with human CXCR4 BacMam and Gqi5 BacMam baculoviruses
T1 sequence (P61073 whole entry): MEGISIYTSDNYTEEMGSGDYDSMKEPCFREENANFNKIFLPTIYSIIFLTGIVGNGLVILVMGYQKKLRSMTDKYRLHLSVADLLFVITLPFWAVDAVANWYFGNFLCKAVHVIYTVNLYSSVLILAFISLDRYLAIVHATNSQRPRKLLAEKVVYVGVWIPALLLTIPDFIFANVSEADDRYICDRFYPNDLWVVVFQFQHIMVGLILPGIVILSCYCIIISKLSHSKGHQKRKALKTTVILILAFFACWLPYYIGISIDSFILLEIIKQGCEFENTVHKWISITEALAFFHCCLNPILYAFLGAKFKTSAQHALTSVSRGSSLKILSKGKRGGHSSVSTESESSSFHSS
Method in brief: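 HEK-293 cells transduced with human CXCR4 (MOI=25) and Gqi5 (MOI=12.5) BacMam were expressed 24 h at 37° C, then loaded 1 h with calcium dye in probenecid medium. Block of the SDF-1 alpha (EC80) [Ca2+]i response was read on FLIPR; IC50 converted to pKb via the Leff and Dougall equation.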

[4] = Human immunodeficiency virus 1, HIV-1 IIIB, HOS cells, 96 h, luciferase readout, read-out: HOS (3B)

Structure (SMILES) | T-tropic HIV viral load (T-tropic HIV) | IC50 [1, 4] | IC50 [2] | IC50 at 96 h [3] | IC50 (human CXCR4) | IC50 ([1]; Human immunodeficiency virus 1, IIIB, as determined by the infectivity assay, strain not stated in Table 2, read-out: Activity Level)
c1cc(CN2CCCNCCNCCCNCC2)ccc1CN1CCCNCCNCCCNCC1 [AMD-3100] | significantly reduce T-tropic HIV viral load | – | – | – | – | –
CN(Cc1nc2c(N3CCNCC3)cccc2[nH]1)C1CCCc2cccnc21 (stereo not shown) [Example 34, N-methyl-N-{[4-(1-piperazinyl)-1H-benzimidazol-2-yl]-methyl}-5,6,7,8-tetrahydro-8-quinolinamine] | – | 6.2 nM | 5.5 nM | > 100000 nM | 8.13 nM | –
CN1CCN(c2cccc3nc(CN(C)C4CCCc5cccnc54)[nH]c23)CC1 (stereo not shown) [Example 35, N-methyl-N-{[4-(4-methyl-1-piperazinyl)-1H-benzimidazol-2-yl]methyl}-5,6,7,8-tetrahydro-8-quinolinamine] | – | 1.6 nM | 0.389 nM | > 100000 nM | 5.89 nM | < 100 nM
